In patent publication US9278981B2, “Compounds and compositions for inhibiting the activity of ABL1, ABL2 and BCR-ABL1” (Novartis AG, priority 2012, dated 2016):

Target: T1, ABL1 (64-515) (Homo sapiens (Human), UniProt P00519)
Assay: Radio ABL1 (64-515) assay (radiometric filter-binding)
Assay type: biochemical
Settings: not given

T1 sequence (P00519 64-515): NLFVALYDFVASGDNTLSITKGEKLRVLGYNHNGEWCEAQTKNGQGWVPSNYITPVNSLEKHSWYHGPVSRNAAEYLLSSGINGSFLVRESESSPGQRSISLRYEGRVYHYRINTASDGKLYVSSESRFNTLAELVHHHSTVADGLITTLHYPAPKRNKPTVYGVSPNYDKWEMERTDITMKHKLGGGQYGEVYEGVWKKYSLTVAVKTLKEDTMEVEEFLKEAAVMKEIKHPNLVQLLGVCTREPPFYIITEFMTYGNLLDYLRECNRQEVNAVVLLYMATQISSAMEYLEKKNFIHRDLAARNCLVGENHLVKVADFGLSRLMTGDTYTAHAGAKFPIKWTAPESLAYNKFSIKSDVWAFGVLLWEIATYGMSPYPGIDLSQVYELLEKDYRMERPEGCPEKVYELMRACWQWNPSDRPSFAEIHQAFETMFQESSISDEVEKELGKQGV

How did the IC50 turn out when `Cc1ccc(-c2cc(C(=O)Nc3ccc(OC(F)(F)F)cc3)cnc2N2CCC(C(C)(C)O)C2)cn1` (centres unmarked) [Example 115, 2-(3-(2-Hydroxypropan-2-yl)pyrrolidin-1-yl)-6′-methyl-N-(4-(trifluoromethoxy)phenyl)-[3,3′-bipyridine]-5-carboxamide] was run?
The IC50 was 16 nM.

For `O=C(Nc1ccc(OC(F)(F)F)cc1)c1cnc(N2CCC(O)C2)c(-c2ccc(C(F)(F)F)nc2)c1` (centres unmarked) [Example 32, 2-(3-Hydroxypyrrolidin-1-yl)-N-(4-(trifluoromethoxy)phenyl)-6′-(trifluoromethyl)-[3,3′-bipyridine]-5-carboxamide], which IC50 is on record?
The IC50 was under 3 nM.

Which IC50 does the source give for `Cc1cncc(-c2cc(C(=O)Nc3ccc(OC(F)(F)F)cc3)cnc2N2CC[C@@H](O)C2)c1` [Example 44, (R)-2-(3-Hydroxypyrrolidin-1-yl)-5′-methyl-N-(4-(trifluoromethoxy)phenyl)-[3,3′-bipyridine]-5-carboxamide] here?
Its IC50 is under 3 nM.

`COc1ccc(-c2cc(C(=O)Nc3ccc(OC(F)(F)F)cc3)cnc2N2CC[C@@H](O)C2)cn1` [Example 56, (R)-2-(3-hydroxypyrrolidin-1-yl)-6′-methoxy-N-(4-(trifluoromethoxy)phenyl)-[3,3′-bipyridine]-5-carboxamide] was tested. Which IC50 did it give?
The IC50 was 4 nM.

With `O=C(Nc1ccc(OC(F)(F)F)cc1)c1cnc(N2CC[C@@H](O)C2)c(-c2ccc3ccncc3c2)c1` [Example 63, (R)-6-(3-Hydroxypyrrolidin-1-yl)-5-(isoquinolin-7-yl)-N-(4-(trifluoromethoxy)phenyl)nicotinamide] as the compound, how does the IC50 read?
The IC50 was 4 nM.

With `CN1CCCN(c2ncc(C(=O)Nc3ccc(OC(F)(F)F)cc3)cc2-c2cccnc2)CC1` [Example 146, 2-(4-Methyl-1,4-diazepan-1-yl)-N-(4-(trifluoromethoxy)phenyl)-[3,3′-bipyridine]-5-carboxamide] as the compound, how does the IC50 read?
The IC50 was under 3 nM.

With `NC(=O)C1CCN(c2ncc(C(=O)Nc3ccc(OC(F)(F)F)cc3)cc2-c2cncnc2)CC1` [Example 21] as the compound, how does the IC50 read?
The IC50 was 13 nM.

`Cc1ccc(-c2cc(C(=O)Nc3ccc(OC(F)(F)F)cc3)cnc2NCCO)cn1` [Example 160, 2-((2-Hydroxyethyl)amino)-6′-methyl-N-(4-(trifluoromethoxy)phenyl)-[3,3′-bipyridine]-5-carboxamide] was tested. Which IC50 did it give?
Its IC50 is under 3 nM.

With `N[C@H]1CCN(c2ncc(C(=O)Nc3ccc(OC(F)(F)F)cc3)cc2-c2cccnc2)C1` [Example 97, (S)-2-(3-Aminopyrrolidin-1-yl)-N-(4-(trifluoromethoxy)phenyl)-[3,3′-bipyridine]-5-carboxamide] as the compound, how does the IC50 read?
Its IC50 is under 3 nM.

For `Cc1ccc(-c2cc(C(=O)Nc3ccc(OC(F)(F)F)cc3)cnc2N2CCCN(C)CC2)cn1` [Example 147, 6′-Methyl-2-(4-methyl-1,4-diazepan-1-yl)-N-(4-(trifluoromethoxy)phenyl)-[3,3′-bipyridine]-5-carboxamide], which IC50 is on record?
Its IC50 is under 3 nM.

With `O=C(Nc1ccc(OC(F)(F)F)cc1)c1cnc(N2CC[C@@H](O)C2)c(-c2cccc(CO)c2)c1` [Example 59, (R)-5-(3-(Hydroxymethyl)phenyl)-6-(3-hydroxypyrrolidin-1-yl)-N-(4-(trifluoromethoxy)phenyl)nicotinamide] as the compound, how does the IC50 read?
The IC50 was 6 nM.

With `NC[C@@H]1CCN(c2ncc(C(=O)Nc3ccc(OC(F)(F)F)cc3)cc2-c2cccnc2)C1` [Example 109, (S)-2-(3-(Aminomethyl)pyrrolidin-1-yl)-N-(4-(trifluoromethoxy)phenyl)-[3,3′-bipyridine]-5-carboxamide] as the compound, how does the IC50 read?
Its IC50 is under 3 nM.

For `COc1ncc(-c2cc(C(=O)Nc3ccc(OC(F)(F)F)cc3)cnc2N2CCC(O)C2)cn1` (centres unmarked) [Example 28, 6-(3-Hydroxypyrrolidin-1-yl)-5-(2-methoxypyrimidin-5-yl)-N-(4-(trifluoromethoxy)phenyl)nicotinamide], which IC50 is on record?
The IC50 was under 3 nM.

How did the IC50 turn out when `O=C(Nc1ccc(OC(F)(F)F)cc1)c1cnc(N2CC(CO)C2)c(-c2cnc(Cl)c(F)c2)c1` [Example 141, 6′-Chloro-5′-fluoro-2-(3-(hydroxymethyl)azetidin-1-yl)-N-(4-(trifluoromethoxy)phenyl)-[3,3′-bipyridine]-5-carboxamide] was run?
The IC50 was 6 nM.

Which IC50 does the source give for `O=C(Nc1ccc(OC(F)(F)F)cc1)c1cnc(N2CCCC(CO)C2)c(-c2cncnc2)c1` (centres unmarked) [Example 19] here?
Its IC50 is under 3 nM.

`Cc1ccc(-c2cc(C(=O)Nc3ccc(OC(F)(F)F)cc3)cnc2N2CCC(O)C2)cn1` (centres unmarked) [Example 30, 2-(3-Hydroxypyrrolidin-1-yl)-6′-methyl-N-(4-(trifluoromethoxy)phenyl)-[3,3′-bipyridine]-5-carboxamide] was tested. Which IC50 did it give?
The IC50 was under 3 nM.

`O=C(Nc1ccc(OC(F)(F)F)cc1)c1cnc(N2CC[C@H](CO)C2)c(-c2ccc(C3CC3)nc2)c1` [Example 85, (S)-6′-Cyclopropyl-2-(3-(hydroxymethyl)pyrrolidin-1-yl)-N-(4-(trifluoromethoxy)phenyl)-[3,3′-bipyridine]-5-carboxamide] was tested. Which IC50 did it give?
Its IC50 is 26 nM.

Which IC50 does the source give for `O=C(Nc1ccc(OC(F)(F)F)cc1)c1cnc(N2CC[C@@H](CO)C2)c(-c2cccnc2)c1` [Example 76, (R)-2-(3-(Hydroxymethyl)pyrrolidin-1-yl)-N-(4-(trifluoromethoxy)phenyl)-[3,3′-bipyridine]-5-carboxamide] here?
The IC50 was under 3 nM.

With `Cc1ccc(-c2cc(C(=O)Nc3ccc(OC(F)(F)F)cc3)cnc2N(C)CCO)cn1` [Example 153, 2-((2-Hydroxyethyl)(methyl)amino)-6′-methyl-N-(4-(trifluoromethoxy)phenyl)-[3,3′-bipyridine]-5-carboxamide] as the compound, how does the IC50 read?
Its IC50 is under 3 nM.

`Cc1ccc(-c2cc(C(=O)Nc3ccc(OC(F)(F)F)cc3)cnc2NCCCO)cn1` [Example 163, 2-((3-Hydroxypropyl)amino)-6′-methyl-N-(4-(trifluoromethoxy)phenyl)-[3,3′-bipyridine]-5-carboxamide] was tested. Which IC50 did it give?
The IC50 was under 3 nM.

For `O=C(Nc1ccc(OC(F)(F)F)cc1)c1cnc(N2CCC(O)C2)c(-c2ccncc2)c1` (centres unmarked) [Example 31, 2-(3-Hydroxypyrrolidin-1-yl)-N-(4-(trifluoromethoxy)phenyl)-[3,4′-bipyridine]-5-carboxamide], which IC50 is on record?
Its IC50 is 7 nM.

For `Cc1ncc(-c2cc(C(=O)Nc3ccc(OC(F)(F)F)cc3)cnc2N2CC[C@@H](O)C2)cn1` [Example 36, (R)-6-(3-Hydroxypyrrolidin-1-yl)-5-(2-methylpyrimidin-5-yl)-N-(4-(trifluoromethoxy)phenyl)nicotinamide], which IC50 is on record?
Its IC50 is under 3 nM.

Which IC50 does the source give for `Cc1ccc(-c2cc(C(=O)Nc3ccc(OC(F)(F)F)cc3)cnc2N2CC[C@@H](N)C2)cn1` [Example 95, (R)-2-(3-Aminopyrrolidin-1-yl)-6′-methyl-N-(4-(trifluoromethoxy)phenyl)-[3,3′-bipyridine]-5-carboxamide] here?
The IC50 was under 3 nM.

Which IC50 does the source give for `Cc1ncc(-c2cc(C(=O)Nc3ccc(OC(F)(F)F)cc3)cnc2N2CC(CO)C2)cn1` [Example 136, 6-(3-(Hydroxymethyl)azetidin-1-yl)-5-(2-methylpyrimidin-5-yl)-N-(4-(trifluoromethoxy)phenyl)nicotinamide] here?
Its IC50 is under 3 nM.

With `COc1ccc(-c2cc(C(=O)Nc3ccc(OC(F)(F)F)cc3)cnc2NCCCO)cn1` [Example 164, 2-((3-Hydroxypropyl)amino)-6′-methoxy-N-(4-(trifluoromethoxy)phenyl)-[3,3′-bipyridine]-5-carboxamide] as the compound, how does the IC50 read?
Its IC50 is 12 nM.

Target: T1, ABL1 (64-515)
Assay: Caliper ABL1 (64-515) assay (microfluidic mobility shift)
Assay type: biochemical
Settings: not given

How did the IC50 turn out when `N#Cc1ccc(F)cc1-c1cc(C(=O)Nc2ccc(OC(F)(F)Cl)cc2)cnc1N1CC[C@@H](O)C1` [Example 287, (R)—N-(4-(Chlorodifluoromethoxy)phenyl)-5-(2-cyano-5-fluorophenyl)-6-(3-hydroxypyrrolidin-1-yl)nicotinamide] was run?
Its IC50 is 1.5 nM.

Which IC50 does the source give for `COc1ncc(-c2cc(C(=O)Nc3ccc(OC(F)(F)Cl)cc3)cnc2N2CC[C@@H](O)C2)cc1C#N` [Example 299, (R)—N-(4-(Chlorodifluoromethoxy)phenyl)-5′-cyano-2-(3-hydroxypyrrolidin-1-yl)-6′-methoxy-[3,3′-bipyridine]-5-carboxamide] here?
The IC50 was 0.3 nM.

For `Cc1ccc(F)cc1-c1cc(C(=O)Nc2ccc(OC(F)(F)Cl)cc2)cnc1N1C[C@H](O)[C@@H](O)C1` [Example 296, N-(4-(Chlorodifluoromethoxy)phenyl)-6-((3S,4S)-3,4-dihydroxypyrrolidin-1-yl)-5-(5-fluoro-2-methylphenyl)nicotinamide], which IC50 is on record?
The IC50 was 1 nM.

For `O=C(Nc1ccc(OC(F)(F)F)cc1)c1cnc(N2CC3CN(CCO)CC3C2)c(-c2cncnc2)c1` (centres unmarked) [Example 281, 6-(5-(2-Hydroxyethyl)hexahydropyrrolo[3,4-c]pyrrol-2(1H)-yl)-5-(pyrimidin-5-yl)-N-(4-(trifluoromethoxy)phenyl)nicotinamide], which IC50 is on record?
Its IC50 is 11 nM.

Which IC50 does the source give for `O=C(Nc1ccc(OC(F)(F)Cl)cc1)c1cnc(N2CC[C@@H](O)C2)c(-c2cc(F)cnc2Cl)c1` [Example 288, (R)-2′-Chloro-N-(4-(chlorodifluoromethoxy)phenyl)-5′-fluoro-2-(3-hydroxypyrrolidin-1-yl)-[3,3′-bipyridine]-5-carboxamide] here?
The IC50 was 1 nM.

How did the IC50 turn out when `N#Cc1ccc(F)c(-c2cc(C(=O)Nc3ccc(OC(F)(F)Cl)cc3)cnc2N2CC[C@@H](O)C2)c1` [Example 295, (R)—N-(4-(Chlorodifluoromethoxy)phenyl)-5-(5-cyano-2-fluorophenyl)-6-(3-hydroxypyrrolidin-1-yl)nicotinamide] was run?
Its IC50 is 0.7 nM.

For `NC12CC1CN(c1ncc(C(=O)Nc3ccc(OC(F)(F)F)cc3)cc1-c1cncnc1)C2` (centres unmarked) [Example 226, 6-(1-Amino-3-azabicyclo[3.1.0]hexan-3-yl)-5-(pyrimidin-5-yl)-N-(4-(trifluoromethoxy)phenyl)nicotinamide], which IC50 is on record?
Its IC50 is 1.9 nM.

For `Cc1ccncc1-c1cc(C(=O)Nc2ccc(OC(F)(F)Cl)cc2)cnc1N1CC[C@@H](O)C1` [Example 291, (R)—N-(4-(Chlorodifluoromethoxy)phenyl)-2-(3-hydroxypyrrolidin-1-yl)-4′-methyl-[3,3′-bipyridine]-5-carboxamide], which IC50 is on record?
Its IC50 is 0.2 nM.

For `N#Cc1cc(F)cc(-c2cc(C(=O)Nc3ccc(OC(F)(F)Cl)cc3)cnc2N2CC[C@@H](O)C2)c1` [Example 293, (R)—N-(4-(Chlorodifluoromethoxy)phenyl)-5-(3-cyano-5-fluorophenyl)-6-(3-hydroxypyrrolidin-1-yl)nicotinamide], which IC50 is on record?
Its IC50 is 0.7 nM.

Same assay, conditions: comparison of ortho substitution on the R3/R4 ring

For `O=C(Nc1ccc(OC(F)(F)F)cc1Cl)c1cnc(N2CC[C@@H](O)C2)c(-c2cncnc2)c1`, which IC50 is on record?
Its IC50 is 850 nM.
